The source of these data is patent US7754740B2, “1H-indole-3-carboxylic acid derivatives and their use as PPAR agonists” (Merck Patent GmbH, priority 2005, dated 2010).

The assay has as its target T1, chimeric protein PPARγ-Gal4 (Homo sapiens, UniProt P37231).
T1 construct: Gal4 (yeast transcription factor); expressed in transfected cells; host or cells: CV-1 cells (monkey kidney cells)
T1 sequence (P37231 238-503 limits assumed): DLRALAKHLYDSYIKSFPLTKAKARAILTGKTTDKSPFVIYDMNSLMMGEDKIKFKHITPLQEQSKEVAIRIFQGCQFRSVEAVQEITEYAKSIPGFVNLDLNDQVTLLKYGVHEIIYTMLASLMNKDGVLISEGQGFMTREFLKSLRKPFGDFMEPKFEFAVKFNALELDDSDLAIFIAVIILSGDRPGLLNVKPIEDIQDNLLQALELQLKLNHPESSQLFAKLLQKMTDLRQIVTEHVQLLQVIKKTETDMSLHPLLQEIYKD
The assay is described as follows: PPARγ-Gal4 transactivation (luciferase reporter) test in cotransfected CV-1 cells. It is filed as cell-based. As for the experimental part:
The measurement of the PPAR activation was performed according to a technique described by Lehmann et al. (J. Biol. Chem., 270, (1995),
CV-1 cells (monkey kidney cells) are cotransfected with an expression vector for the chimeric protein PPARγ-Gal4 and with a “reporter” plasmid that allows expression of the luciferase gene placed under the control of a promoter comprising Gal4 response elements.
The cells are seeded in 96-well microplates and cotransfected using a commercial reagent with the reporter plasmid (pG5-tk-pGL3) and the expression vector for the chimeric protein (PPARγ-Gal4). After incubation for 4 hours, whole culture medium (comprising 10% foetal calf serum) is added to the wells. After 24 hours, the medium is removed and replaced with whole medium comprising the test products. The products are left in contact with the cells for 18 hours. The cells are then lysed and the luciferase activity is measured using a luminometer. A PPARγ activation factor can then be calculated by means of the activation of the expression of the reporter gene induced by the product (relative to the control cells that have received no product).
In the absence of the PPARγ ligand binding domain (vector expressing Gal4 alone), the luciferase activity measured in the presence of an agonist is zero.
The following transactivation result was obtained with a concentration of 50 μM on PPARγ.
The transactivation test using the expression of a chimeric protein Gal-4-PPARγ makes it possible to determine also whether an agonist functions as a “full” agonist or as a “partial” agonist in this system.
An agonist is “partial” in this system if it induces a weaker response, i.e. it has lower efficacy, than rosiglitazone, which is a “full” agonist. In concrete terms, in our system, the transactivation obtained at the plateau with a partial agonist will be between 20% and 50% of the maximum response (efficacy) at the plateau of rosiglitazone.
On the technique in general: A reporter such as luciferase makes a cellular process visible.

Turning to `CCOC(=O)c1c(C)n(CCOC)c2cc(CCCC3CCCC3)c(OCCCC(=O)O)cc12` [Example 31, ethyl 5-(3-carboxypropoxy)-6-(3-cyclopentylpropyl)-1-(2-methoxyethyl)-2-methyl-1H-indole-3-carboxylate], the “Concentration to reach the maximum stimulation of the PPARγ chimeric protein” value (Gal4-PPARγ transactivation test, CV-1 cells) is 1 µM. Besides, the Emax (transactivation at the plateau as % of the maximum response (efficacy) of rosiglitazone, CV-1 cells, read-out: Maximum stimulation of the PPARγ chimeric protein obtained with rosiglitazone) came out at 24%.

For the compound `CCOC(=O)c1c(C)n(Cc2ccccc2)c2cc(-c3cccnc3)c(OCCCC(=O)O)cc12` [Example 4, Ethyl-benzyl-5-(3-carboxypropoxy)-2-methyl-6-pyrid-3-yl-1H-indole-3-carboxylate], the “Activation factor of the chimeric protein PPARγ-Gal4” value (50 μM, CV-1 cells (monkey kidney cells), 18 hours contact, luciferase reporter, relative to control cells without product (= 1)) turned out to be 17.
